Experimental data from patent US20260250257A1, “ANTIBACTERIAL AND SYNERGISTIC ACTIVE COMPOUND AND USE THEREOF” (EAST CHINA UNIVERSITY OF SCIENCE AND TECHNOLOGY, priority 2023, published 2026).
Values after ≈ are worked out from the molar mass of the structure shown.

Columns and labels:
Format in all cases: cell-based
[1] = test system: ATCC19606 strain (Acinetobacter baumannii); assay: Broth microdilution, antibacterial activity of the compound used alone
Source text: (§1) The broth microdilution method was used to test the antibacterial effects of the compounds of the present invention against various Gram-negative bacterial strains when used alone.

[2] = test system: ATCC13883 strain (Klebsiella pneumoniae); assay: as above
Source text: as §1

[3] = test system: ATCC9027 strain (Pseudomonas aeruginosa); assay: as above
Source text: as §1

[4] = test system: ATCC25922 strain (Escherichia coli); assay: as above
Source text: as §1

[5] = test system: ATCC19606 strain (Acinetobacter baumannii); assay: Checkerboard antibacterial synergistic activity test with polymyxin E (FIC); set-up: key: FIC≤0.5 synergy; 0.5–1 additive; 1–2 indifferent; ≥2 antagonism; details: combined with polymyxin E
Procedure, shortened: (§2)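 FIC values come from a microdilution checkerboard crossing polymyxin E against the test compound in MH medium, with uninoculated blanks included. Incubation lasts 16 h at 37° C. Scoring: synergy at FIC ≤0.5, additivity between 0.5 and 1, indifference between 1 and 2, antagonism at 2 or above.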

[6] = test system: ATCC13883 strain (Klebsiella pneumoniae); assay: as above; set-up: key: FIC≤0.5 synergy; 0.5–1 additive; 1–2 indifferent; ≥2 antagonism; details: combined with polymyxin E
Procedure, shortened: as §2

[7] = test system: ATCC9027 strain (Pseudomonas aeruginosa); assay: as above; set-up: key: FIC≤0.5 synergy; 0.5–1 additive; 1–2 indifferent; ≥2 antagonism; details: combined with polymyxin E
Procedure, shortened: as §2

[8] = test system: ATCC25922 strain (Escherichia coli); assay: as above; set-up: key: FIC≤0.5 synergy; 0.5–1 additive; 1–2 indifferent; ≥2 antagonism; details: combined with polymyxin E
Procedure, shortened: as §2

SMILES	Antibacterial activity of the compound of Formula I, ATCC19606 [1] [µg/mL]	Antibacterial activity of the compound of Formula I, ATCC13883 [2] [µg/mL]	Antibacterial activity of the compound of Formula I, ATCC9027 [3] [µg/mL]	Antibacterial activity of the compound of Formula I, ATCC25922 [4] [µg/mL]	Synergistic activity (FIC value) ATCC19606 [5]	Synergistic activity (FIC value) ATCC13883 [6]	Synergistic activity (FIC value) ATCC9027 [7]	Synergistic activity (FIC value) ATCC25922 [8]	MIC ([1]; read-out: Antibacterial activity of the compound of Formula I, ATCC19606) [µg/mL]	MIC ([2]; read-out: Antibacterial activity of the compound of Formula I, ATCC13883) [µg/mL]	MIC ([3]; read-out: Antibacterial activity of the compound of Formula I, ATCC9027) [µg/mL]	MIC ([4]; read-out: Antibacterial activity of the compound of Formula I, ATCC25922) [µg/mL]
NC(N)=Nc1nc(-c2c(Br)cc(Br)cc2Br)c(I)o1 [Compound I-53]	256	256	256	256	0.28	0.25	0.63	0.5				
NC(N)=Nc1nc(-c2c(I)cc(I)cc2I)cs1 [Compound I-54]	256	256	256	256	0.15	0.33	0.62	0.39				
NC(N)=Nc1nc(-c2cccc3ccccc23)cs1 [Compound I-55]	256	256	256	256	0.13	0.31	0.53	0.38				
NC(N)=Nc1nc(-c2ccc3ccccc3c2)cs1 [Compound I-56]					1.25	1.25	1.25	0.5	256 (≈ 954 µM)	256 (≈ 954 µM)	256 (≈ 954 µM)	256 (≈ 954 µM)
Cc1cccc2cccc(-c3csc(N=C(N)N)n3)c12 [Compound I-57]	256	256	256	256	0.3	0.25	0.63	0.5				
Cc1ccc2cccc(-c3nc(N=C(N)N)oc3C)c2c1 [Compound I-58]	256	256	256	256	0.28	0.25	0.63	0.5				
Cc1ccc2c(-c3coc(N=C(N)N)n3)cccc2c1 [Compound I-59]	256	256	256	256	0.15	0.33	0.62	0.39				
CCc1[nH]c(N=C(N)N)nc1-c1cccc2c(C)cccc12 [Compound I-60]	256	256	256	256	0.12	0.31	0.31	0.38				
Cc1cc(C)c2c(-c3csc(N=C(N)N)n3)cccc2c1 [Compound I-61]	256	256	256	256	0.75	0.63	0.56	0.5				
NC(N)=Nc1nc(-c2cccc3cccc(Cl)c23)c(Cl)s1 [Compound I-62]	256	128	64	128	0.52	0.52	1.25	0.63				
Cc1oc(N=C(N)N)nc1-c1cccc2ccc(Cl)cc12 [Compound I-63]	256	256	256	256	0.75	0.38	0.63	0.5				
NC(N)=Nc1nc(-c2cccc3cc(Cl)ccc23)co1 [Compound I-64]	256	256	256	256	0.52	0.52	1.25	0.63				
NC(N)=Nc1nc(-c2cccc3c(Cl)cccc23)c[nH]1 [Compound I-65]	256	256	256	256	0.5	1.25	1.25	1.25				
NC(N)=Nc1nc(-c2cccc3cc(Cl)cc(Cl)c23)c(Br)s1 [Compound I-66]	256	256	256	256	0.13	0.31	0.53	0.38				
NC(N)=Nc1nc(-c2cccc3cccnc23)co1 [Compound I-67]	256	256	256	256	0.5	1.25	1.25	0.63				
NC(N)=Nc1nc(-c2ccc3cccnc3c2)cs1 [Compound I-68]	256	256	256	256	0.51	1.25	1.25	1.25				
NC(N)=Nc1nc(-c2cccc3ccsc23)c[nH]1 [Compound I-69]	256	256	256	256	1.25	1.25	0.51	1.25				
Cc1sc(N=C(N)N)nc1-c1cccc2ccoc12 [Compound I-70]	256	256	256	256	0.26	1.25	1.25	1.25				
NC(N)=Nc1nc(-c2cccc3ncsc23)co1 [Compound I-71]	256	256	256	256	0.13	0.19	1.25	0.52				
